Values joined by “and” are separate entries in the source; they are usually repeats but may differ in a detail not shown here. Equal values may be shown once. Read-outs that look alike come from different tables or passages of the source.
Assays:
[1] = target: T1, EphrinB2-EphB2 (Homo sapiens, UniProt P29323); assay: Octet tetramerization inhibition, immobilized human EphrinB2 binding to 50 nM soluble human EphB2
T1 construct: soluble human EphB1-His, EphB2-His, and EphB4-His ectodomains; commercially available human EphrinB1-Fc (EB1), EphrinB2-Fc (EB2), and EphrinB3-Fc (EB3) ectodomain proteins; purchased
T1 sequence (P29323 19-543 limits assumed): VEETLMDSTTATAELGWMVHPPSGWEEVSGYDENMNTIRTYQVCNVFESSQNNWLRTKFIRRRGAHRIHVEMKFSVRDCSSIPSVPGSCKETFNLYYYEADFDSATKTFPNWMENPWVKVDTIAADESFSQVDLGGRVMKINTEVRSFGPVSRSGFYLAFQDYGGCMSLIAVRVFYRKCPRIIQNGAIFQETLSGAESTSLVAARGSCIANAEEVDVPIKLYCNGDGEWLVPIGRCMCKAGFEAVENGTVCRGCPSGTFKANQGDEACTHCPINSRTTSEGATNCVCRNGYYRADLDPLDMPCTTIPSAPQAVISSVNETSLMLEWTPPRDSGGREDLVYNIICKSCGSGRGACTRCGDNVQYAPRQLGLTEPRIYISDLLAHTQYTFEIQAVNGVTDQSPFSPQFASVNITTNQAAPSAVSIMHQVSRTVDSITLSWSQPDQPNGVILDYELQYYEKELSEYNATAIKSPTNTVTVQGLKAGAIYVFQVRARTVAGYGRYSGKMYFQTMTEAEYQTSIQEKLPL

[2] = target: T1, EphrinB2-EphB2; assay: Octet 80 sec association/500 sec dissociation, immobilized human EphrinB2-Fc binding to soluble human EphB2-His; settings: for IC50 / inhibition / inhibition at 3.2 µM: EphB2; for inhibition: highest dose, typically 3.2 μM; for inhibition at 3.2 µM: 25 nM EphB2, 3.2 μM compound, A20-I as max control, 0* = less than 0, no inhibition
In short: (§1)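 EphrinB2-Fc captured on AHC biosensors, then soluble His-tagged EphB ectodomain (25 nM for % inhibition runs) associated 80 s and dissociated 500 s in PBS, 0.05% Tween-20, 1% DMSO ± compound. Compounds tested at 0.1–3.2 μM with a 10 μM max standard; IC50 from AUC of full traces or at 75 s and 135 s.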

[3] = target: T2, EphrinB2-EphB1 (Homo sapiens, UniProt P54762); assay: Octet 80 sec association/500 sec dissociation, immobilized human EphrinB2-Fc binding to soluble human EphB1-His; settings: for inhibition: highest dose, typically 3.2 μM; for inhibition at 3.2 µM: 25 nM EphB1, 3.2 μM compound, A20-I as max control, 0* = less than 0, no inhibition
T2 construct: soluble human EphB1-His, EphB2-His, and EphB4-His ectodomains; commercially available human EphrinB1-Fc (EB1), EphrinB2-Fc (EB2), and EphrinB3-Fc (EB3) ectodomain proteins; purchased
T2 sequence (P54762 18-540 limits assumed): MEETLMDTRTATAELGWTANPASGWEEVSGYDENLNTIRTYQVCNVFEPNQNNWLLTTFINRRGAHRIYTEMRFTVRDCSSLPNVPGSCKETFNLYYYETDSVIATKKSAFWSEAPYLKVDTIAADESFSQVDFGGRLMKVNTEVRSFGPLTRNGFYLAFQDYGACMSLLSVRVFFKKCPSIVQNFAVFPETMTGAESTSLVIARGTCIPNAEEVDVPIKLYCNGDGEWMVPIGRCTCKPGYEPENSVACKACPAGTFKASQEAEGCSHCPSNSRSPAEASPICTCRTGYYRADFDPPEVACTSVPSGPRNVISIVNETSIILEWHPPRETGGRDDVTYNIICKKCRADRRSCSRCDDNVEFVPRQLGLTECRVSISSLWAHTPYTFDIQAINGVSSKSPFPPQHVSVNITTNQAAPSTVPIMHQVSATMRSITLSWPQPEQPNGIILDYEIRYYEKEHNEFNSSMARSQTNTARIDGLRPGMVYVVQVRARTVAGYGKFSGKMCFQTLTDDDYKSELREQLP
In short: as §1

[4] = Absolute AUC/IC50, Table A, EphrinB2-EphB2
[5] = Absolute Association IC50 (300 sec), Table A, EphrinB2-EphB2
[6] = Absolute Dissociation IC50 (450 sec), Table A, EphrinB2-EphB2
[7] = Relative AUC/IC50, Table A, EphrinB2-EphB2, compound 7: association only
[8] = Relative Association IC50 (300 sec), Table A, EphrinB2-EphB2
[9] = Relative Dissociation IC50 (450 sec), Table A, EphrinB2-EphB2
[10] = tetramerization inhibitor IC50 (relative), association step, surmountable tetramer
[11] = read-out: % Inhibition: Association + Dissociation (160 sec)
[12] = read-out: % Inhibition: Association ONLY (80 sec)
[13] = EphB1, read-out: % Inhibition: Association + Dissociation (160 sec)
[14] = EphB1, read-out: % Inhibition: Association ONLY (80 sec)

## Oc1c(Cl)cc(CN2CCOCC2)c2cccnc12 [Compound 4, 4-((7-chloro-8-hydroxyquinolin-1-ium-5-yl)methyl)morpholin-4-ium chloride]
[1]; [4]
  IC50: 930 nM
[1]; [5]
  IC50: 1260 nM
[1]; [6]
  IC50: 760 nM
[1]; [7]
  IC50: 510 nM
[1]; [8]
  IC50: 530 nM
[1]; [9]
  IC50: 550 nM
[2]; at 3.2 μM and 80 seconds, immobilized human EphrinB2, 25 nM soluble human EphB2
  EphB2 Inhibition Percent, Inhibition of Association ONLY: 64.1%
[2]; at 3.2 μM and 580 seconds, immobilized human EphrinB2, 25 nM soluble human EphB2
  EphB2 Inhibition Percent, Inhibition of Association-Dissociation: 78.1%
[3]; at 3.2 μM and 80 seconds, immobilized human EphrinB2, 25 nM soluble human EphB1
  EphB1 Inhibition Percent, Inhibition of Association ONLY: 34.2%
[3]; at 3.2 μM and 580 seconds, immobilized human EphrinB2, 25 nM soluble human EphB1
  EphB1 Inhibition Percent, Inhibition of Association-Dissociation: 48.4%

## Oc1c(Br)cc(CN2CCN(c3ccc(Br)cc3)CC2)c2cccnc12 [Compound 28, 7-bromo-5-((4-(4-bromophenyl)piperazin-1-yl)methyl)quinolin-8-ol]
[1]
  inhibition of unsurmountable tetramer: 100%
[1]; 0.8-3.2 μM
  disruption of unsurmountable tetramer: complete loss of this structure at 3.2 μM
[1]; [4]
  IC50: 360 nM and 530 nM and 590 nM and 510 nM
[1]; [5]
  IC50: 380 nM and 580 nM and 680 nM and 780 nM
[1]; [6]
  IC50: 350 nM and 400 nM and 580 nM and 630 nM
[1]; [7]
  IC50: 220 nM and 370 nM and 230 nM and 320 nM
[1]; [8]
  IC50: 300 nM and 330 nM (2×) and 400 nM
[1]; [9]
  IC50: 300 nM and 420 nM and 370 nM
[1]; [10]
  IC50: ~300 nM
[1]; tetramerization inhibitor IC50, surmountable tetramer
  IC50: ~300 nM
[2]; Association (75″), read-out: Absolute IC50
  IC50: 320 nM
[2]; Association (75″), read-out: Relative IC50
  IC50: 280 nM
[2]; Association (AUC), read-out: Absolute IC50
  IC50: 360 nM
[2]; Association (AUC), read-out: Relative IC50
  IC50: 280 nM
[2]; Dissociation (135″), read-out: Absolute IC50
  IC50: 250 nM
[2]; Dissociation (135″), read-out: Relative IC50
  IC50: 230 nM
[2]; Full AUC, read-out: Absolute IC50
  IC50: 200 nM
[2]; Full AUC, read-out: Relative IC50
  IC50: 180 nM
[2]; read-out: Association (% Inhibited (AUC))
  inhibition: 62.5%
[2]; read-out: Association + Dissociation (% Inhibited (AUC))
  inhibition: 78.7%
[3]; EphB1, 0-160 sec, 50 nM, 10 μM compound, Table 4
  % Inhibited (AUC), Association + Dissociation: 38.6%
[3]; EphB1, 50 nM, 10 μM compound, Table 4
  % Inhibited (AUC), Association: 24.7%
[3]; EphB1, Association (75″), read-out: Absolute IC50
  IC50: > 3200 nM
[3]; EphB1, Association (75″), read-out: Relative IC50
  IC50: 100 nM
[3]; EphB1, Association (AUC), read-out: Absolute IC50
  IC50: > 3200 nM
[3]; EphB1, Association (AUC), read-out: Relative IC50
  IC50: 100 nM
[3]; EphB1, Dissociation (135″), read-out: Absolute IC50
  IC50: 360 nM
[3]; EphB1, Dissociation (135″), read-out: Relative IC50
  IC50: 80 nM
[3]; EphB1, Full AUC, read-out: Absolute IC50
  IC50: 500 nM
[3]; EphB1, Full AUC, read-out: Relative IC50
  IC50: 170 nM
[3]; EphB1, read-out: Association (% Inhibited (AUC))
  inhibition: 39.1%
[3]; EphB1, read-out: Association + Dissociation (% Inhibited (AUC))
  inhibition: 53.1%

## Oc1c(Cl)cc(CN2CCOCC2)c2cccnc12 [Compound 3, 7-chloro-5-(morpholinomethyl)quinolin-8-ol]
[1]; [4]
  IC50: 2400 nM
[1]; [5]
  IC50: 2340 nM
[1]; [6]
  IC50: 1700 nM
[1]; [8]
  IC50: 1120 nM
[1]; [9]
  IC50: 1050 nM
[1]; [10]
  IC50: ~500 nM
[2]; 3.2 μM, EphB1, EphB2 and EphB4
  inhibition of EphrinB2-EphB interactions: activity similar to A20-I max control
[2]; [11]
  inhibition at 3.2 µM: 78.1%
[2]; [12]
  inhibition at 3.2 µM: 64.1%
[3]; [13]
  inhibition at 3.2 µM: 48.4%
[3]; [14]
  inhibition at 3.2 µM: 34.2%

## Oc1ccc(CN2CCN(Cc3ccc(C(F)(F)F)cc3)CC2)c2cccnc12 [Compound 48, 5-((4-(4-(trifluoromethyl)benzyl)piperazin-1-yl)methyl)quinolin-8-ol]
[1]; [4]
  IC50: > 1600 nM
[1]; [5]
  IC50: > 1600 nM
[1]; [6]
  IC50: > 1600 nM
[1]; [7]
  IC50: > 1600 nM
[1]; [8]
  IC50: > 1600 nM
[1]; [9]
  IC50: > 1600 nM
[2]; [11]
  inhibition at 3.2 µM: 46.2%
[2]; [12]
  inhibition at 3.2 µM: 21.3%
[3]; [13]
  inhibition at 3.2 µM: 19.8%
[3]; [14]
  inhibition at 3.2 µM: 2.6%

From patent US20260374739A1, “SMALL MOLECULAR WEIGHT CHEMICAL COMPOUND TO ANTAGONIZE EPH-EPHRIN TETRAMERIZATION AND INHIBIT BIDIRECTIONAL SIGNALING” (THE BOARD OF REGENTS OF THE UNIVERSITY OF TEXAS SYSTEM, priority 2022, published 2026)
